Results taken from patent US20220251096A1, “7,8-DIHYDRO-4H-PYRAZOLO[4,3-c]AZEPINE-6-ONE COMPOUNDS” (Eli Lilly and Company, priority 2019, published 2022).

Assays:
Type in all cases: cell-based
HL-60 = assay: Cell growth inhibition assay, HL-60; conditions: Homo sapiens, 168 h; HL-60, 7 days
Description: (§1) Tumor cell lines are plated onto 96-well, black wall poly-D-lysine plates (Corning #354640), and incubated at 37° C., 5% CO2 for 18-24 hours. Compound was added at 1:3 dilutions in DMSO and cells were incubated at 37° C., 5% CO2 for 7 days. For adherent cell lines, cells were fixed and stained with propidium iodide and scanned on Acumen (channel 3 setting). For suspension cell lines, cell growth was monitored using Cell Titer-Glo reagent.

SW780 = assay: Cell growth inhibition assay, SW780; conditions: Homo sapiens, 168 h; SW780, 7 days
Description: as §1

MDA-MIB-453 = assay: Cell growth inhibition assay, MDA-MIB-453; conditions: 168 h; MDA-MIB-453, 7 days
Description: as §1

KG-1a = assay: Cell growth inhibition assay, KG-1a; conditions: Homo sapiens, 168 h, 7 days
Description: as §1

CREBBP = CREBBP (Homo sapiens, UniProt Q92793); assay: NanoBRET assay, CREBBP bromodomain; set-up: NanoLuc-CREBBP-BD (Promega, 0.0002 μg); host or cells: HEK293; conditions: NanoBRET in HEK293 cells, read after 4 hours incubation; mean ± Standard Deviation
CREBBP, sequence (Q92793 1085-1192 limits assumed): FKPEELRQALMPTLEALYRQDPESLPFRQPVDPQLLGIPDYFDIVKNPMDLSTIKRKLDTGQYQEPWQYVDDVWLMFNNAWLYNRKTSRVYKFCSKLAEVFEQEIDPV
Description: HEK293 cells are seeded at 10×10^6 cells/16 mL in DMEM+10% FBS in a T-75 flask and left to attach for 4-6 hours. Transfection reagents are diluted in Opti-MEM media (no phenol red, no FBS) and 8% Fugene HD containing expression plasmids at a final concentration of the following: 1: Histone H3.3 HaloTag DNA (Promega, 0.02 μg)+NanoLuc-CREBBP-BD (Promega, 0.0002 μg); 2: Histone H3.3 HaloTag DNA (Promega, 0.02 μg)+NanoLuc-EP300-BD (Promega, 0.0002 μg); 3: Histone H4 HaloTag DNA (0.02 μg)+NanLuc-BRD4 Full Length (Promega, 0.0002 μg). The DNA/Fugene mixtures are left at RT for 10 minutes. Transfection mix (800 μL) is added per flask and immediately swirled to cover the cells. The plates are returned to the incubator for overnight transfection. The next day, HaloTag NanoBRET 618 ligand (20 μL/vial of 0.1 mM) is thawed at RT. […]
Compound is serially diluted and added to 96-well plates (2 10 mM, 3-fold dilutions, 100% DMSO). […] CREBBP/EP300 plates are read after 4 hours incubation and the BRD4 plates are read after overnight incubation. To develop plates for reading, allow all reagents to reach RT before use. […] The plate is shaken for 1 minute to mix and within 10 minutes, read on Envision plate reader with the following settings: Mirror: Luminescence; Emission filter: E600LP; 2nd emission filter: D460/50; Measurement height (mm): 6.5; Measurement time (s): 0.2 second.

Q: What does the source list for CCNC(=O)c1ccc(-c2cc3cccc(-c4nn(C)c5c4CN(C)C(=O)CC5)c3cn2)cn1 [Example 2, 5-[8-(1,5-Dimethyl-6-oxo-7,8-dihydro-4H-pyrazolo[4,3-c]azepin-3-yl)-3-isoquinolyl]-N-ethyl-pyridine-2-carboxamide]?
A: IC50 (HL-60): 0.328 µM; IC50 (SW780): 0.004 µM; IC50 (MDA-MIB-453): 0.035 µM; IC50 (KG-1a): 0.002 µM; IC50 (CREBBP): 0.0186 ± 0.00409 µM
